Laboratory results as given in PubChem BioAssay AID330 (DTP/NCI, 2004).
Several values for one entry are separate records, joined by “and”; a condition that tells them apart may be missing. Equal values may be shown once. Toxic doses and inconclusive results are not listed.

Test system: P388 leukemia ip, CD2F1 mice, survival T/C
Test: NCI In Vivo Anticancer Drug Screen. Data for tumor model P388 Leukemia (intraperitoneal) in CD2F1 (CDF1) mice
Details: endpoint: median survival time, higher = longer survival
Method in brief: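 Mice carrying the transplanted tumor received test compound or vehicle. Survival was recorded in each group, and the value is the treated-group measurement divided by that of the vehicle-treated control group.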

[1] = dose: 100.0 mg/kg/injection, schedule: Q04DX002 (ip), vehicle: saline with Tween-80
[2] = dose: 200.0 mg/kg/injection, schedule: Q04DX002 (ip), vehicle: saline with Tween-80
[3] = dose: 400.0 mg/kg/injection, schedule: Q04DX002 (ip), vehicle: saline with Tween-80
[4] = dose: 25.0 mg/kg/injection, schedule: Q01DX009 (ip), vehicle: saline with Tween-80
[5] = dose: 50.0 mg/kg/injection, schedule: Q01DX009 (ip), vehicle: saline with Tween-80
[6] = dose: 100.0 mg/kg/injection, schedule: Q01DX009 (ip), vehicle: saline with Tween-80
[7] = dose: 100.0 mg/kg/injection, schedule: Q04DX003 (ip), vehicle: saline with Tween-80
[8] = dose: 240.0 mg/kg/injection, schedule: Q01DX005 (ip), vehicle: saline with Tween-80
[9] = dose: 12.5 mg/kg/injection, schedule: Q01DX009 (ip), vehicle: saline with Tween-80
[10] = dose: 200.0 mg/kg/injection, schedule: Q01DX009 (ip), vehicle: saline with Tween-80
[11] = dose: 50.0 mg/kg/injection, schedule: Q01DX005 (ip), vehicle: Klucel (hydroxypropylcellulose) (HPC)
[12] = dose: 100.0 mg/kg/injection, schedule: Q01DX005 (ip), vehicle: Klucel (hydroxypropylcellulose) (HPC)
[13] = dose: 200.0 mg/kg/injection, schedule: Q01DX005 (ip), vehicle: Klucel (hydroxypropylcellulose) (HPC)

For CCS(=O)c1ccccc1 (stereo not given), the T/C (dose: 100.0 mg/kg/injection, schedule: Q04DX002 (ip), vehicle: Klucel (hydroxypropylcellulose) (HPC)) was 100 % of control, the T/C (dose: 200.0 mg/kg/injection, schedule: Q04DX002 (ip), vehicle: Klucel (hydroxypropylcellulose) (HPC)) was 100 % of control and the T/C (dose: 400.0 mg/kg/injection, schedule: Q04DX002 (ip), vehicle: Klucel (hydroxypropylcellulose) (HPC)) was 102 % of control.

In the case of CC(=O)C1C(C=C(C)C)C1(C)C (stereo not given), the T/C [1] is reported as 96 % of control, the T/C [2] is reported as 106 % of control and the T/C [3] is reported as 101 % of control.

OC1COC(c2nn(-c3ccccc3)c3nc4ccc(Cl)cc4nc23)C1O (stereo not given) was tested, and the T/C [1] was 107 % of control, the T/C [2] was 97 % of control and the T/C [3] was 95 % of control.

COS(=O)(=O)N(C)c1nc(N(C)C)nc(N(C)C)n1 was tested, and the T/C (dose: 50.0 mg/kg/injection, schedule: Q01DX005 (ip), vehicle: saline) was 96 % of control and the T/C (dose: 100.0 mg/kg/injection, schedule: Q01DX005 (ip), vehicle: saline) was 108 % of control.

CCN(CCO)CC(C)Nc1ccc([N+](=O)[O-])c2sc3ccccc3c(=O)c12 (stereo not given) was tested, and the T/C [4] was 159 % of control, the T/C [5] was 190 % of control and 213 % of control and the T/C (dose: 66.0 mg/kg/injection, schedule: Q04DX003 (ip), vehicle: saline with Tween-80) was 159 % of control. For the same compound, the T/C [6] was 100 % of control, the T/C [7] was 213 % of control and the T/C (dose: 150.0 mg/kg/injection, schedule: Q04DX003 (ip), vehicle: saline with Tween-80) was 118 % of control.

COc1cccc2c1[C@H]1CO[C@H]3C4C[C@H](C(=O)O)C([C@@H](C2)N13)N4C (stereo not given in full) was tested, and the T/C (dose: 0.31 mg/kg/injection, schedule: Q01DX005 (ip), vehicle: water) was 112 % of control, the T/C (dose: 0.62 mg/kg/injection, schedule: Q01DX005 (ip), vehicle: water) was 113 % of control and 121 % of control and the T/C (dose: 1.25 mg/kg/injection, schedule: Q01DX005 (ip), vehicle: water) was 116 % of control. For the same compound, the T/C (dose: 10.0 mg/kg/injection, schedule: Q01DX005 (ip), vehicle: water) was 165 % of control and 195 % of control and 247 % of control and the T/C (dose: 20.0 mg/kg/injection, schedule: Q01DX005 (ip), vehicle: water) was 247 % of control.

In the case of Cc1cc(C)c(S(=O)(=O)N/N=C(\CBr)c2ccccc2)c(C)c1, the T/C (dose: 7.5 mg/kg/injection, schedule: Q01DX005 (ip), vehicle: saline with Tween-80) is reported as 97 % of control, the T/C (dose: 15.0 mg/kg/injection, schedule: Q01DX005 (ip), vehicle: saline with Tween-80) is reported as 91 % of control and the T/C (dose: 30.0 mg/kg/injection, schedule: Q01DX005 (ip), vehicle: saline with Tween-80) is reported as 102 % of control. The T/C [8] was 89 % of control.

In the case of C=C1N(c2nc(Cl)nc(Cl)n2)c2ccccc2C1(C)C, the T/C [9] is reported as 113 % of control, the T/C [4] is reported as 104 % of control and the T/C [5] is reported as 124 % of control and 86 % of control.

With OCC1OC(Oc2ccc3cc(Br)ccc3c2)C(O)C1O (stereo not given) the T/C (dose: 50.0 mg/kg/injection, schedule: Q01DX009 (ip), vehicle: Klucel (hydroxypropylcellulose) (HPC)) was 90 % of control, the T/C (dose: 100.0 mg/kg/injection, schedule: Q01DX009 (ip), vehicle: Klucel (hydroxypropylcellulose) (HPC)) was 99 % of control and the T/C (dose: 200.0 mg/kg/injection, schedule: Q01DX009 (ip), vehicle: Klucel (hydroxypropylcellulose) (HPC)) was 97 % of control.

C=C(C)C1(n2[nH]c(=O)n(-c3ccccc3)c2=O)CCC(C)=CC1=O (stereo not given) was tested, and the T/C (dose: 100.0 mg/kg/injection, schedule: Q01DX001 (ip), vehicle: saline with Tween-80) was 102 % of control, the T/C (dose: 200.0 mg/kg/injection, schedule: Q01DX001 (ip), vehicle: saline with Tween-80) was 95 % of control and the T/C (dose: 400.0 mg/kg/injection, schedule: Q01DX001 (ip), vehicle: saline with Tween-80) was 87 % of control.

For Cc1ccc2c(=O)ccn(Cc3ccccc3)c2n1, the T/C (dose: 100.0 mg/kg/injection, schedule: Q01DX001 (ip), vehicle: saline) was 101 % of control, the T/C (dose: 200.0 mg/kg/injection, schedule: Q01DX001 (ip), vehicle: saline) was 103 % of control and the T/C (dose: 400.0 mg/kg/injection, schedule: Q01DX001 (ip), vehicle: saline) was 92 % of control.

In the case of CC(C)CC(=O)N(CCC#N)c1ncc([N+](=O)[O-])s1, the T/C (dose: 100.0 mg/kg/injection, schedule: Q01DX001 (ip), vehicle: Klucel (hydroxypropylcellulose) (HPC)) is reported as 110 % of control and the T/C (dose: 200.0 mg/kg/injection, schedule: Q01DX001 (ip), vehicle: Klucel (hydroxypropylcellulose) (HPC)) is reported as 98 % of control.

With CC(=O)OC(CCC1CO1)OC(C)=O (stereo not given) the T/C (dose: 50.0 mg/kg/injection, schedule: Q01DX009 (ip), vehicle: saline) was 100 % of control, the T/C (dose: 100.0 mg/kg/injection, schedule: Q01DX009 (ip), vehicle: saline) was 98 % of control and the T/C (dose: 200.0 mg/kg/injection, schedule: Q01DX009 (ip), vehicle: saline) was 100 % of control.

In the case of CCCCNC(=S)N/N=C/c1nc2ccccc2c(=O)n1-c1ccc(Br)cc1, the T/C [1] is reported as 98 % of control and the T/C [2] is reported as 89 % of control.

Cc1c2ccncc2c(CNC(=O)CCC(=O)NCc2c3cnccc3c(C)c3c2c2ccccc2n3C)c2c3ccccc3n(C)c12 was tested, and the T/C (dose: 6.25 mg/kg/injection, schedule: Q04DX002 (ip), vehicle: saline with Tween-80) was 108 % of control, the T/C (dose: 12.5 mg/kg/injection, schedule: Q04DX002 (ip), vehicle: saline with Tween-80) was 103 % of control and the T/C (dose: 25.0 mg/kg/injection, schedule: Q04DX002 (ip), vehicle: saline with Tween-80) was 102 % of control. For the same compound, the T/C (dose: 50.0 mg/kg/injection, schedule: Q04DX002 (ip), vehicle: saline with Tween-80) was 102 % of control.

Nc1nc(-c2c[nH]c(=O)[nH]c2=O)cs1 was tested, and the T/C [9] was 107 % of control, the T/C [4] was 107 % of control and the T/C [5] was 104 % of control.

CCCOC(=O)CP(=O)(O)O was tested, and the T/C [5] was 101 % of control, the T/C [6] was 95 % of control and the T/C [10] was 87 % of control.

For O=S1(=O)CC(c2ccccc2)(N2CCOCC2)C1, the T/C [5] was 94 % of control, the T/C [6] was 96 % of control and the T/C [10] was 105 % of control.

With CS(=O)(=O)C(CCC(=O)c1ccc2ccccc2c1)C(=O)c1ccccc1 (stereo not given) the T/C [11] was 88 % of control, the T/C [12] was 89 % of control and the T/C [13] was 92 % of control.

CN(C)c1ccc(C(C#N)C(C#N)c2ccccc2)cc1 (stereo not given) was tested, and the T/C (dose: 6.25 mg/kg/injection, schedule: Q01DX009 (ip), vehicle: saline with Tween-80) was 94 % of control, the T/C [9] was 94 % of control and the T/C [4] was 103 % of control. The T/C [5] was 100 % of control.

With COc1ccc(N=Nc2c(O)n(-c3ccc(Br)cc3)c(=S)n(-c3ccc(OC)cc3)c2=O)cc1 the T/C [7] was 96 % of control and the T/C (dose: 200.0 mg/kg/injection, schedule: Q04DX003 (ip), vehicle: saline with Tween-80) was 87 % of control.

For CCOc1ccc(NC(=O)/C(=C\c2ccc(C)cc2)C(C)=O)cc1, the T/C (dose: 50.0 mg/kg/injection, schedule: Q01DX005 (ip), vehicle: saline with Tween-80) was 106 % of control, the T/C (dose: 100.0 mg/kg/injection, schedule: Q01DX005 (ip), vehicle: saline with Tween-80) was 110 % of control and the T/C (dose: 200.0 mg/kg/injection, schedule: Q01DX005 (ip), vehicle: saline with Tween-80) was 104 % of control.

With O=S(=O)(OC1=CC2c3ccccc3C1c1ccccc12)C(F)(F)F the T/C (dose: 50.0 mg/kg/injection, schedule: Q01DX005 (ip), vehicle: saline + Tween-80 + alcohol) was 100 % of control, the T/C (dose: 100.0 mg/kg/injection, schedule: Q01DX005 (ip), vehicle: saline + Tween-80 + alcohol) was 100 % of control and the T/C (dose: 200.0 mg/kg/injection, schedule: Q01DX005 (ip), vehicle: saline + Tween-80 + alcohol) was 103 % of control.

With O=c1c2ccccc2nc(C(F)(F)F)n1CCc1c[nH]c2ccccc12 the T/C [11] was 93 % of control, the T/C [12] was 92 % of control and the T/C [13] was 98 % of control.

CC(C)(O)c1cc2nc3ccccc3nc2n1CCO was tested, and the T/C (dose: 60.0 mg/kg/injection, schedule: Q01DX005 (ip), vehicle: saline with Tween-80) was 109 % of control, the T/C (dose: 120.0 mg/kg/injection, schedule: Q01DX005 (ip), vehicle: saline with Tween-80) was 107 % of control and the T/C [8] was 108 % of control.

In the case of Cn1c2cc3ccccc3cc2nc2cc3c(cc21)c(Cl)c(=O)c1ccccc13, the T/C [5] is reported as 109 % of control, the T/C [6] is reported as 99 % of control and the T/C [10] is reported as 100 % of control.

For O=C(O)C1CSC(c2coc3ccccc3c2=O)N1 (stereo not given), the T/C (dose: 50.0 mg/kg/injection, schedule: Q01DX009 (ip), vehicle: suspension in saline) was 108 % of control, the T/C (dose: 100.0 mg/kg/injection, schedule: Q01DX009 (ip), vehicle: suspension in saline) was 117 % of control and the T/C (dose: 200.0 mg/kg/injection, schedule: Q01DX009 (ip), vehicle: suspension in saline) was 108 % of control.
